# Experimental data published in patent US7799565B2, “Lipid encapsulated interfering RNA” (Protiva Biotherapeutics, Inc., priority 2004, dated 2010).
# Legend:
# luciferase = experiment: In vitro silencing of luciferase in stably transfected Neuro2A cells; assay type: cell-based; conditions: 48 hours; for luciferase expression relative to untreated control: cationic lipid incorporated in SNALP with anti-luciferase siRNA
# Protocol: In vitro Transfection: Cells were cultured in MEM (Invitrogen) containing 10% fetal bovine serum (FBS) (CanSera) and 0.25 mg/mL G418 (Invitrogen). Neuro2A-G cells (Neuro2A cells stably transfected to express luciferase [R. E. Kingston. in Current Protocols in Molecular Biology, Vol. 2, pp. 9.1.4-9.1.9, John Wiley & Sons, Inc. (1997)]) were plated at a concentration of 4×10^4 cells per well in 24-well plates and grown overnight. Cells were treated with SNALP at doses of 0.0625-1.0 μg/mL nucleic acid (AntiLuc Active or Mismatch Control) and incubated for 48 hours at 37° C. and 5% CO2. Cells were then washed with PBS and lysed with 200 μL 250 mM sodium phosphate containing 0.1% Triton X-100. The luciferase activity for each well was determined using Luciferase Reagent (Promega) and a standard luciferase protein (Roche). The luminescence for each was measured using a Berthold MicroLumatPlus LB96V plate luminometer. The resulting luciferase activity was then normalized for the amount of protein using the Micro BCA assay kit (Pierce). Luciferase knockdown relative to a control was then determined for each system.
# This example describes experiments comparing expression of nucleic acids following in vitro transfection of Neuro2A cells with SNALP comprising: (1) DODAC, DODMA, or DLinDMA; (2) PEG-C-DMA; and (3) an siRNA duplex directed against luciferase encapsulated in the SNALP (i.e., siRNA comprising the following sequence: […] and targeting the DNA sequence complementary to: […]). Neuro2A cells were stably transfected with a plasmid encoding luciferase under the control of the CMV promoter (pLO55). The stably transfected cells were then transfected with SNALP comprising: 15, 20, 25, 30, 35, or 40% of DODAC, DODMA, or DLinDMA; 2% PEG-C-DMA, and an siRNA duplex directed against luciferase encapsulated in the SNALP. Luciferase protein expression was measured 48 hours after transfection with SNALP.
# The ability of SNALP containing each of the four cationic lipids (i.e., DSDMA, DODMA, DLinDMA, and DLenDMA) to effect gene silencing in stably transfected Neuro2A cells was evaluated. Neuro2A cells stably transfected to express the luciferase were treated with SNALP containing anti-luciferase siRNA for 48 hours. Gene-silencing efficiency was evaluated by comparing the remaining luciferase activity in these cells to that remaining in cells treated with control SNALP containing mismatch siRNA.
# [1] = 31P-NMR phase transition of cationic lipid / DPPS vesicles; assay type: physicochemical; conditions: series DSDMA, DODMA, DLinDMA, DLenDMA
# Protocol: ^31P Nuclear Magnetic Resonance Spectroscopy: Multilamellar vesicles (MLV) were prepared comprising DPPS and cationic lipid at a molar ratio of 1:1. This was accomplished by drying the lipids from chloroform solution, transferring to 10 mm NMR tubes, and hydrating in 1.5 mL of 10 mM sodium citrate, pH 4. Free induction decays (FIDs) corresponding to 1000 scans were obtained with a 3.0 μs, 60 o pulse with a 1 s interpulse delay and a spectral width of 25000 Hz. A gated two-level proton decoupling was used to ensure sufficient decoupling with minimum sample heating. An exponential multiplication corresponding to 50 Hz of line broadening was applied to the FIDs prior to Fourier transformation. The sample temperature (+/−1° C.) was regulated using a Bruker B-VT1000 variable temperature unit. Chemical shifts were referenced to 85% phosphoric acid as an external standard.
# [2] = SNALP with anti-luciferase siRNA, versus control SNALP containing mismatch siRNA
Compound,gene-silencing activity (luciferase; [2]),luciferase expression relative to untreated control (luciferase) [%],phase transition temperature [1],knockdown in gene expression (luciferase; [2]) [%]
"CC/C=C\C/C=C\C/C=C\CCCCCCCCOCC(CN(C)C)OCCCCCCCC/C=C\C/C=C\C/C=C\CC (stereo not shown) [DLenDMA, 1,2-Dilinolenyloxy-N,N-dimethylaminopropane]",slightly less efficient than those containing DLinDMA,32,–,–
"CCCCCCCCCCCCCCCCCC[N+](C)(C)CCCCCCCCCCCCCCCCCC [DODMA, dioctadecyldimethylammonium, reference compound]",–,54,–,–
"CCCCCCCCCCCCCCCCCC[N+](C)(C)CCCCCCCCCCCCCCCCCC [DSDMA, Distearyldimethylammonium, reference compound]",no activity,–,–,–
"CCCCC/C=C\C/C=C\CCCCCCCCOCC(CN(C)C)OCCCCCCCC/C=C\C/C=C\CCCCC (stereo not shown) [DLinDMA, 1,2-DiLinoleyloxy-N,N-dimethylaminopropane]",–,21,lowest phase transition temperature in the series,80
